The source of these data is patent US10669272B2, “Substituted naphthyridinone compounds useful as T cell activators” (BRISTOL-MYERS SQUIBB COMPANY, priority 2018, dated 2020).

Each structure is given as a SMILES string. Like-named read-outs stand apart in the source and are kept apart here.

One experiment concerns naïve human CD8 T cells. Kind of experiment: Human CD8 T cells IFN-γ assay.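 Also: Naïve human CD8 T cells stimulated with plate-bound anti-CD3 and soluble anti-CD28, IFN-γ in supernatant quantified by AlphaLISA and converted to pg/mL.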 Format: cell-based. Particulars: read-out: HuCD8 INFG Normalized EC50.
A further experiment has as its target T1, human DGKα (Homo sapiens, UniProt P23743).
T1 construct: TVMV protease cleavage site (C); Hexa-His (C); made in house; host or cells: Sf9 insect cells (baculovirus, Bac-to-Bac)
Kind of experiment: DGKα LIPGLO assay (extruded liposome substrate), in vitro DGK inhibition. Format: biochemical. Particulars: read-out: DGKa LIPGLO IC50.

The test system of another experiment is Human venous whole blood. Kind of experiment: Human whole blood IFN-γ assay.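 Also: blood from healthy donors exposed to compound for 1 h before stimulation with anti-CD3 and anti-CD28 at 1 µg/mL each, IFN-γ quantified in supernatant by AlphaLISA.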 Format: cell-based. The note with it: human whole blood, read-out: INFg Whole Blood Normalized Agonist EC50.
The target of another experiment is T2, human DGKζ (Homo sapiens, UniProt Q13574).
T2 construct: TVMV protease cleavage site (C); Hexa-His (C); made in house; host or cells: Sf9 insect cells (baculovirus, Bac-to-Bac)
T2 sequence (Q13574 with tags, fused parts or gaps isoform Q13574-4): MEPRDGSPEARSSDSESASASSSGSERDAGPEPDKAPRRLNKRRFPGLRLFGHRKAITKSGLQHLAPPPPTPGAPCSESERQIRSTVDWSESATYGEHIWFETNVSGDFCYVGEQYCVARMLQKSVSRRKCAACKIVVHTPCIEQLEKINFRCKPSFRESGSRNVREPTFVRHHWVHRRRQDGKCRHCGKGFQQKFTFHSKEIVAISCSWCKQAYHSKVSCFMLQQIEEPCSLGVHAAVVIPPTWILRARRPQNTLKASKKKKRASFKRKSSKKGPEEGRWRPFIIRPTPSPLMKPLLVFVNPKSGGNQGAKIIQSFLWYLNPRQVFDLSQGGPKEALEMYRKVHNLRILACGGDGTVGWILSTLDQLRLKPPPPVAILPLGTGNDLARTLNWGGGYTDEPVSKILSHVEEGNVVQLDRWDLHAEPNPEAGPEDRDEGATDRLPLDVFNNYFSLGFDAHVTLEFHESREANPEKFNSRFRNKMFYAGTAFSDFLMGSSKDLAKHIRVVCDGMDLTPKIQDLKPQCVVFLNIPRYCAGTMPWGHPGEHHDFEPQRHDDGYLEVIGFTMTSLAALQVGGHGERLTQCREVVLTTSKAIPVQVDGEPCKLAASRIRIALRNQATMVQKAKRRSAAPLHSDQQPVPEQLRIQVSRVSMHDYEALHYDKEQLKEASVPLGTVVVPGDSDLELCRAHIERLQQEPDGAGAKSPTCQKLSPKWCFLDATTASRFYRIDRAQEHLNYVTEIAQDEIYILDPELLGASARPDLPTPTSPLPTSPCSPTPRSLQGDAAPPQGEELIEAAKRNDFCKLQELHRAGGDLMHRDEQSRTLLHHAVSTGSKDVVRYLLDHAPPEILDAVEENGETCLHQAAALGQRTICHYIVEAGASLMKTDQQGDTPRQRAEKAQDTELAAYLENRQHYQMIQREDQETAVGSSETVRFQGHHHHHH
Kind of experiment: DGKζ LIPGLO assay (extruded liposome substrate), in vitro DGK inhibition. Format: biochemical. Particulars: read-out: DGKz LIPGLO IC50.

The mark [1] stands for this setting: Homo sapiens, T-cell, 20 h, normalized to 3 μM reference compound with anti-CD3 plus anti-CD28 as 100% activation.
The mark [2] stands for this setting: Homo sapiens, 24 h, normalized to 3 μM reference compound with anti-CD3 plus anti-CD28 as 100% activation.
Where [3] appears, read: normalized to 3 μM reference compound with anti-CD3 plus anti-CD28 as 100% activation.
The mark [4] stands for this setting: Homo sapiens, T-cell, 20 h, naïve human CD8 T cells, anti-CD3 plus anti-CD28, 3 μM reference compound = 100% activation.
[5] abbreviates: Homo sapiens, 24 h, anti-CD3 plus anti-CD28, 24 hours, 3 μM reference compound = 100% activation.

T1 sequence (P23743 with tags, fused parts or gaps): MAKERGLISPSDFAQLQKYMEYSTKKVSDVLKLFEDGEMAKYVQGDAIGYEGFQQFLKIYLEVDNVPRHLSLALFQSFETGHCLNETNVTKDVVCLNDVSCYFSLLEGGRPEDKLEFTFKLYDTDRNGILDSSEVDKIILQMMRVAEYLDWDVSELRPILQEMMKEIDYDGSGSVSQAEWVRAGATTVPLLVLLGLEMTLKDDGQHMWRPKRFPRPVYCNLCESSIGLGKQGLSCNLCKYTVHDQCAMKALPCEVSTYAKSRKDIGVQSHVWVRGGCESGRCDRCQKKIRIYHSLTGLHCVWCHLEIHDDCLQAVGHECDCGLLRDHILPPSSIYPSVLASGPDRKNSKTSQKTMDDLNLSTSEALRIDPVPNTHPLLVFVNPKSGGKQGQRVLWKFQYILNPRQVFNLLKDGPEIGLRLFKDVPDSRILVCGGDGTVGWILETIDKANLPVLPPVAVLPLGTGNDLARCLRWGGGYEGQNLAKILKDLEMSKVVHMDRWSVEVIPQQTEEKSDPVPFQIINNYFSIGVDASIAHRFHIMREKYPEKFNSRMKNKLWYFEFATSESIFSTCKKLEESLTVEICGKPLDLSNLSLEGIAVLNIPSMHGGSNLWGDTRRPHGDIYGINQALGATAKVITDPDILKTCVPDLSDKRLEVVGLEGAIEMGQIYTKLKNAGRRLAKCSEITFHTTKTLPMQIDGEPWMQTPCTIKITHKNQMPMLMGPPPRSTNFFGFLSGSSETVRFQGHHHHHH
Description for Human venous whole blood: Human Whole Blood IFN-γ Assay
Human venous whole blood (22.5 μL per well), obtained from healthy donors, was pre-treated with compounds for one hour at 37° C. in a humidified 95% air/5% CO2 incubator. The blood was stimulated with 2.5 μL anti-human CD3 and anti-CD28 mAb at a final concentration of 1 μg/mL each for 24 hours at 37° C. IFN-γ in the supernatants was measured using AlphLISA kit (Cat # AL217).

With `Cc1ccc(C(c2ccc(C)c(Cl)c2)N2C[C@H](C)N(c3cc(=O)n(C)c4ccc(C#N)nc34)C[C@H]2C)nc1` (single isomer, unassigned) [Example 373], the half-maximal effective concentration (EC50) with naïve human CD8 T cells (setting [1]) was 180 nM; in the experiment on Human venous whole blood (setting [2]), 320 nM. Besides, the IC50 on human DGKα (liposome (LIPGLO) assay) was determined as 6500 nM; on human DGKζ (liposome (LIPGLO) assay) it was 740 nM.
Take `C[C@@H]1CN(c2cc(=O)n(C)c3ccc(C#N)nc23)[C@@H](C)CN1C(c1ccc(F)c(F)c1)c1ccccn1` (single isomer, unassigned) [Example 375]: the EC50 in the experiment with naïve human CD8 T cells (setting [1]) was 49 nM; in the experiment with Human venous whole blood (setting [2]), 330 nM. The half-maximal inhibitory concentration (IC50) is 270 nM at human DGKα (liposome (LIPGLO) assay) and 2700 nM at human DGKζ (liposome (LIPGLO) assay).
On to `C[C@@H]1CN(c2cc(=O)n(C)c3ccc(C#N)nc23)[C@@H](C)CN1C(c1ccc(F)c(F)c1)c1ccccn1` (single isomer, unassigned) [Example 376], for which the concentration for a half-maximal effect (EC50) with naïve human CD8 T cells (setting [3]) stood at 28 nM; with Human venous whole blood (setting [3]), 380 nM. For the same compound, the half-inhibitory concentration (IC50) amounted to 2900 nM at human DGKα (liposome (LIPGLO) assay) and 1100 nM at human DGKζ (liposome (LIPGLO) assay).
Take `C[C@@H]1CN(c2cc(=O)n(C)c3ccc(C#N)nc23)[C@@H](C)CN1C(c1ccc(OC(F)(F)F)cc1)c1ccccn1` (single isomer, unassigned) [Example 378]: the values for the half-maximal effective concentration (EC50) in the experiment on naïve human CD8 T cells (setting [1]) and in the experiment on Human venous whole blood (setting [2]) were 5.3 nM and 490 nM, respectively. Also, the figures for the IC50 on human DGKα (liposome (LIPGLO) assay) and at human DGKζ (liposome (LIPGLO) assay) were 690 nM and 2500 nM, respectively.
Consider `C[C@@H]1CN(c2cc(=O)n(C)c3ccc(C#N)nc23)[C@@H](C)CN1C(c1ccc(Cl)cc1)c1ccccn1` (single isomer, unassigned) [Example 381], for which the EC50 in the experiment on naïve human CD8 T cells (setting [1]) is 3.9 nM; in the experiment on Human venous whole blood (setting [3]), 180 nM. The figures for the IC50 at human DGKα (liposome (LIPGLO) assay) and at human DGKζ (liposome (LIPGLO) assay) were 360 nM and 500 nM, respectively.
Turning to `Cc1nccc(C(c2ccc(F)cc2)N2C[C@H](C)N(c3cc(=O)n(C)c4ccc(C#N)nc34)C[C@H]2C)n1` (single isomer, unassigned) [Example 389], the EC50 in the experiment on naïve human CD8 T cells (setting [1]) was determined as 25 nM; in the experiment with Human venous whole blood (setting [3]), 280 nM. Also, the IC50 at human DGKα (liposome (LIPGLO) assay) was found to be 2200 nM; at human DGKζ (liposome (LIPGLO) assay) it was 1100 nM.
The corresponding values for `Cc1ccc(C(c2cncc(F)c2)N2C[C@H](C)N(c3cc(=O)n(C)c4ccc(C#N)nc34)C[C@H]2C)cc1` (single isomer, unassigned) [Example 391] are 81 nM, 890 nM, 3100 nM and 2400 nM.
Turning to `C[C@@H]1CN(c2cc(=O)n(C)c3ccc(C#N)nc23)[C@@H](C)CN1C(c1ccc(F)cc1)c1ccncn1` (single isomer, unassigned) [Example 392], the EC50 was 66 nM with naïve human CD8 T cells (setting [1]) and 330 nM with Human venous whole blood (setting [2]). For the same compound, the results for the half-maximal inhibitory concentration (IC50) on human DGKα (liposome (LIPGLO) assay) and at human DGKζ (liposome (LIPGLO) assay) were 180 nM and 2100 nM, respectively.
For the compound `[2H]C(C)(c1ccc(F)cc1)N1C[C@H](C)N(c2c(F)c(=O)n(C)c3ccc(C#N)nc23)C[C@H]1C` (single isomer, unassigned) [Example 425], the results for the 50% effective concentration (EC50) in the experiment with naïve human CD8 T cells (setting [1]) and in the experiment with Human venous whole blood (setting [3]) were 110 nM and 270 nM, respectively. Moreover, the 50% inhibitory concentration (IC50) at human DGKα (liposome (LIPGLO) assay) is 58 nM; on human DGKζ (liposome (LIPGLO) assay) it was 1500 nM.
As for `CC(c1c(F)cc(F)cc1F)N1C[C@H](C)N(c2cc(=O)n(C)c3ccc(C#N)nc23)C[C@H]1C` (single isomer, unassigned) [Example 432], the EC50 with naïve human CD8 T cells (setting [1]) is 15 nM; in the experiment on Human venous whole blood (setting [2]) it was 67 nM. Besides, the values for the half-maximal inhibitory concentration (IC50) on human DGKα (liposome (LIPGLO) assay) and at human DGKζ (liposome (LIPGLO) assay) were 510 nM and 500 nM, respectively.
The corresponding values for `CC(c1ccc(C(F)(F)F)cc1F)N1C[C@H](C)N(c2cc(=O)n(C)c3ccc(C#N)nc23)C[C@H]1C` (single isomer, unassigned) [Example 434] are 5.7 nM, 600 nM, 1800 nM and 700 nM.
The corresponding values for `Cc1cccc(C(c2ccc(Cl)cc2)N2C[C@H](C)N(c3cc(=O)n(C)c4ccc(C#N)nc34)C[C@H]2C)n1` (single isomer, unassigned) [Example 443] are 94 nM, 370 nM, 1400 nM and 110 nM.
The corresponding values for `Cc1ccc(C(c2ccc(F)cn2)N2C[C@H](C)N(c3cc(=O)n(C)c4ccc(C#N)nc34)C[C@H]2C)cc1` (single isomer, unassigned) [Example 444] are 49 nM, 510 nM, 130 nM and 760 nM.
Consider `Cc1ccnc(C(c2ccc(F)cc2)N2C[C@H](C)N(c3cc(=O)n(C)c4ccc(C#N)nc34)C[C@H]2C)c1` (single isomer, unassigned) [Example 455], for which the EC50 came to 97 nM in the experiment on naïve human CD8 T cells (setting [1]) and 740 nM in the experiment on Human venous whole blood (setting [2]). The IC50 at human DGKα (liposome (LIPGLO) assay) came to 1000 nM; at human DGKζ (liposome (LIPGLO) assay) it was 2400 nM.
On to `Cc1ccc(C(c2cc(C)ccn2)N2C[C@H](C)N(c3cc(=O)n(C)c4ccc(C#N)nc34)C[C@H]2C)cc1` (single isomer, unassigned) [Example 460], for which the EC50 in the experiment with naïve human CD8 T cells (setting [1]) was 27 nM; in the experiment with Human venous whole blood (setting [3]), 520 nM. Besides, the IC50 on human DGKα (liposome (LIPGLO) assay) came out at 30 nM; on human DGKζ (liposome (LIPGLO) assay) it was 38 nM.
With `C[C@@H]1CN(c2cc(=O)n(C)c3ccc(C#N)nc23)[C@@H](C)CN1C(c1ccc(F)cc1)c1cccc(F)n1` (single isomer, unassigned) [Example 471], the EC50 with naïve human CD8 T cells (setting [1]) worked out at 200 nM; in the experiment on Human venous whole blood (setting [2]), 570 nM. Moreover, the results for the IC50 on human DGKα (liposome (LIPGLO) assay) and on human DGKζ (liposome (LIPGLO) assay) were 250 nM and 520 nM, respectively.
The corresponding values for `C[C@@H]1CN(c2cc(=O)n(C)c3ccc(C#N)nc23)[C@@H](C)CN1C(c1ccc(Cl)cc1)c1ccc2c(c1)OC(F)(F)O2` (single isomer, unassigned) [Example 657] are 27 nM, 660 nM, 2400 nM and 1600 nM.
As to `C[C@@H]1CN(c2cc(=O)n(C)c3ccc(C#N)nc23)[C@@H](C)CN1C(c1ccc(F)cc1)c1ccc(C(F)F)cc1` (single isomer, unassigned) [Example 666], the EC50 came to 5.6 nM in the experiment with naïve human CD8 T cells (setting [3]) and 920 nM with Human venous whole blood (setting [2]). The half-maximal inhibitory concentration (IC50) worked out at 720 nM at human DGKα (liposome (LIPGLO) assay) and 2000 nM at human DGKζ (liposome (LIPGLO) assay).
`C[C@@H]1CN(c2cc(=O)n(C)c3ccc(C#N)nc23)[C@@H](C)CN1C(c1ccc(F)cc1)c1ccc(C(F)F)cc1` (single isomer, unassigned) [Example 667]: the EC50 is 27 nM in the experiment with naïve human CD8 T cells (setting [3]) and 850 nM with Human venous whole blood (setting [3]). Moreover, the figures for the concentration for half-maximal inhibition (IC50) at human DGKα (liposome (LIPGLO) assay) and at human DGKζ (liposome (LIPGLO) assay) were 2800 nM and 2700 nM, respectively.
For the compound `C[C@@H]1CN(c2cc(=O)n(C)c3ccc(C#N)nc23)[C@@H](C)CN1C(c1ccccn1)c1ccc(F)cc1F` (single isomer, unassigned) [Example 682], the EC50 was found to be 39 nM in the experiment on naïve human CD8 T cells (setting [1]) and 320 nM in the experiment on Human venous whole blood (setting [3]). Further, the figures for the IC50 at human DGKα (liposome (LIPGLO) assay) and on human DGKζ (liposome (LIPGLO) assay) were 580 nM and 1500 nM, respectively.
As for `C[C@@H]1CN(c2cc(=O)n(C)c3ccc(C#N)nc23)[C@@H](C)CN1C(c1ccc(F)cn1)c1ccc(F)cc1F` (single isomer, unassigned) [Example 685], the EC50 in the experiment on naïve human CD8 T cells (setting [1]) turned out to be 12 nM; in the experiment with Human venous whole blood (setting [3]) it was 100 nM. In addition, the IC50 on human DGKα (liposome (LIPGLO) assay) amounted to 300 nM; at human DGKζ (liposome (LIPGLO) assay), 1000 nM.
In the case of `COc1ccc(C(c2cccc(F)c2)N2C[C@H](C)N(c3cc(=O)n(C)c4ccc(C#N)nc34)C[C@H]2C)nc1` (single isomer, unassigned) [Example 687], the EC50 with naïve human CD8 T cells (setting [1]) turned out to be 17 nM; with Human venous whole blood (setting [3]), 270 nM. Also, the results for the IC50 at human DGKα (liposome (LIPGLO) assay) and on human DGKζ (liposome (LIPGLO) assay) were 1600 nM and 730 nM, respectively.
The corresponding values for `C[C@@H]1CN(c2cc(=O)n(C)c3ccc(C#N)nc23)[C@@H](C)CN1C(c1ccc(F)cc1)c1ccon1` (single isomer, unassigned) [Example 707] are 44 nM, 400 nM, 150 nM and 1700 nM.
The corresponding values for `C[C@@H]1CN(c2cc(=O)n(C)c3ccc(C#N)nc23)[C@@H](C)CN1C(c1ccc(F)cc1)c1cocn1` (single isomer, unassigned) [Example 710] are 22 nM, 550 nM, 120 nM and 2600 nM.
The corresponding values for `C[C@@H]1CN(c2cc(=O)n(C)c3ccc(C#N)nc23)[C@@H](C)CN1C(c1ccc(F)cc1)c1cnsc1` (single isomer, unassigned) [Example 715] are 42 nM, 680 nM, 360 nM and 3900 nM.
Take `C[C@@H]1CN(c2cc(=O)n(C)c3ccc(C#N)nc23)[C@@H](C)CN1C(c1ccc(F)cc1)c1nc(C2CC2)no1` (single isomer, unassigned) [Example 735]: the EC50 stood at 0.74 nM in the experiment on naïve human CD8 T cells (setting [4]) and 140 nM in the experiment on Human venous whole blood (setting [5]). Besides, the figures for the IC50 on human DGKα (DGKα liposome (LIPGLO) assay) and on human DGKζ (DGKζ liposome (LIPGLO) assay) were 240 nM and 61 nM, respectively.
The corresponding values for `C[C@@H]1CN(c2cc(=O)n(C)c3ccc(C#N)nc23)[C@@H](C)CN1C(c1ccc(F)cc1)c1nc(C2CC2)no1` (single isomer, unassigned) [Example 736] are 25 nM, 150 nM, 160 nM and 480 nM.

For orientation: EC50 means the concentration at which the effect is half-maximal. The IC50 is the point on the concentration scale where inhibition reaches its midpoint.
